Calls of active or inactive are those of the source. No cut-off for these calls is given here.
system: Rattus norvegicus; assay: Inhibition of FAAH in Sprague-Dawley rat brain homogenate assessed as time duration needed for enzyme activity recovery by measuring [3H]-anandamide hydrolysis at 6 mg/kg by liquid scintillation analysis; format: functional; conditions: not given

SMILES | Time
O=C(Nc1nn[nH]n1)N1CCN(Cc2cccc(Oc3ccc(Cl)cc3)c2)CC1 | 24 h

system: Rattus norvegicus; assay: Inhibition of FAAH in Sprague-Dawley rat brain homogenate assessed as increase in PEA levels at 0.1 to 100 mg/kg measured 4 hrs post dosing by […]; format: functional, organism-based; conditions: not given

SMILES | inhibition
O=C(Nc1cccnc1)N1CCN(Cc2cccc(Oc3ccc(C(F)(F)F)cc3)c2)CC1 | Active

system: Rattus norvegicus; assay: Inhibition of FAAH in Sprague-Dawley rat brain homogenate assessed as residual activity measured as [3H]-anandamide hydrolysis at 20 mg/kg after 1 hr by liquid scintillation analysis; format: functional; conditions: not given

SMILES | Activity
O=C(Nc1cnc2ccccn12)N1CCN(Cc2cccc(Oc3ccc(Cl)cc3)c2)CC1 | < 10%

system: Rattus norvegicus; assay: Inhibition of FAAH in Sprague-Dawley rat brain homogenate assessed as time duration needed for enzyme activity recovery by measuring [3H]-anandamide hydrolysis at 20 mg/kg by liquid scintillation analysis; format: functional; conditions: not given

SMILES | Time
O=C(Nc1cccnc1)N1CCN(Cc2cccc(Oc3ccc(C(F)(F)F)cc3)c2)CC1 | 24 h
O=C(Nc1ccccc1)N1CCN(Cc2cccc(Oc3ccc(Cl)cc3)c2)CC1 | 24 h
O=C(Nc1cnccc1Cl)N1CCN(Cc2cccc(Oc3ccc(F)cc3)c2)CC1 | 24 h
O=C(Nc1cccc2nccn12)N1CCN(Cc2cccc(Oc3ccc(Cl)cc3)c2)CC1 | 24 h
O=C(Nc1cnc2ccccn12)N1CCN(Cc2cccc(Oc3ccc(Cl)cc3)c2)CC1 | 24 h
O=C(Nc1noc2ccccc12)N1CCN(Cc2cccc(Oc3ccc(Cl)cc3)c2)CC1 | 24 h
O=C(Nc1cccnc1)N1CCC(Cc2cccc(Oc3ccc(Cl)cc3)c2)CC1 | 24 h
O=C(Nc1cccnc1)N1CCN(Cc2cc(Cl)cc(Oc3ccc(Cl)cc3)c2)CC1 | 24 h
O=C(Nc1cnccc1Cl)N1CCN(Cc2cccc(Oc3ccc(Cl)cc3)c2)CC1 | 24 h

species: Rattus norvegicus; conditions: Sprague-Dawley, Brain, 6 mg/kg
Description: Inhibition of FAAH in Sprague-Dawley rat brain homogenate assessed as increase in OEA levels at 6 mg/kg after 0.5 to 4 hrs by liquid scintillation analysis

SMILES | inhibition
O=C(Nc1nn[nH]n1)N1CCN(Cc2cccc(Oc3ccc(Cl)cc3)c2)CC1 | Active

system: not listed separately; assay: Ratio of drug level in brain to plasma in Sprague-Dawley rat at 10 mg/kg via oral gavage; format: ADME, organism-based; conditions: read-out: BPR

Kp | SMILES
3.64 | O=C(Nc1ccccc1)N1CCN(Cc2cccc(Oc3ccc(Cl)cc3)c2)CC1

species: Rattus norvegicus; conditions: Sprague-Dawley, Brain, 6 mg/kg; remark: another data set of the same source
Description: Inhibition of FAAH in Sprague-Dawley rat brain homogenate assessed as increase in PEA levels at 6 mg/kg after 0.5 to 4 hrs by liquid scintillation analysis

SMILES | inhibition
O=C(Nc1nn[nH]n1)N1CCN(Cc2cccc(Oc3ccc(Cl)cc3)c2)CC1 | Active

system: not listed separately; assay: Clearance in Sprague-Dawley rat; format: ADME, organism-based; conditions: in vivo

clearance | SMILES
63.3 mL/min/kg | O=C(Nc1cnc2ccccn12)N1CCN(Cc2cccc(Oc3ccc(Cl)cc3)c2)CC1
9.33 mL/min/kg | O=C(Nc1noc2ccccc12)N1CCN(Cc2cccc(Oc3ccc(Cl)cc3)c2)CC1
46.5 mL/min/kg | O=C(Nc1cnccc1Cl)N1CCN(Cc2cccc(Oc3ccc(Cl)cc3)c2)CC1

system: Brain; assay: Drug uptake in Sprague-Dawley rat brain at 20 mg/kg via oral gavage after 4 hrs by LC-MS/MS analysis; format: ADME, organism-based; conditions: in vivo

Drug uptake | SMILES
Dose-dependent effect | O=C(Nc1cccnc1)N1CCN(Cc2cc(Cl)cc(Oc3ccc(Cl)cc3)c2)CC1

biological target: T1, Fatty-acid amide hydrolase 1 (Rattus norvegicus, UniProt P97612); assay: Apparent inhibition of recombinant rat FAAH expressed in SK-N-MC cells assessed as [3H]-anandamide hydrolysis after 1 hr by liquid scintillation analysis; format: cell-based; conditions: not given
T1 sequence (P97612 whole entry): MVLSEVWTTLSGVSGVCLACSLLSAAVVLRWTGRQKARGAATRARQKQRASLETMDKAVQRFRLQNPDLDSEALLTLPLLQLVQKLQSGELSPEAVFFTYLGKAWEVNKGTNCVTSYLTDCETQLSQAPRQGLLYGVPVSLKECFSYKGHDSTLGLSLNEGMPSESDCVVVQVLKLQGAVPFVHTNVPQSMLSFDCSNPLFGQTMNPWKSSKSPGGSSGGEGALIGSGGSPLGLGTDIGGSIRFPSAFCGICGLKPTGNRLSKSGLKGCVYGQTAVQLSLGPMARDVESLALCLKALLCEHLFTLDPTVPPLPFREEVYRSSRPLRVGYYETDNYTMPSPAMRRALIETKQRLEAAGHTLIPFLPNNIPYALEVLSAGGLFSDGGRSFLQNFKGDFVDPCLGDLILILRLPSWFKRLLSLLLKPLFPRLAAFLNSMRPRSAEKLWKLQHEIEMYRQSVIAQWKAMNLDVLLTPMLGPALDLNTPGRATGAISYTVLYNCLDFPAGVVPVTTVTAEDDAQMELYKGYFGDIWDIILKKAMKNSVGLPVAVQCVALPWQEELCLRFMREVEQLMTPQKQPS

IC50 | SMILES
48 nM | O=C(Nc1cnccc1Cl)N1CCN(Cc2cccc(Oc3ccc(F)cc3)c2)CC1
8 nM | O=C(Nc1noc2ccccc12)N1CCN(Cc2cccc(Oc3ccc(Cl)cc3)c2)CC1
215 nM | O=C(Nc1cccnc1)N1CCC(Cc2cccc(Oc3ccc(Cl)cc3)c2)CC1
76 nM | O=C(Nc1cccnc1)N1CCN(Cc2cc(Cl)cc(Oc3ccc(Cl)cc3)c2)CC1
20 nM | O=C(Nc1cnccc1Cl)N1CCN(Cc2cccc(Oc3ccc(Cl)cc3)c2)CC1

system: not listed separately; assay: Dissociation constant, pKa of the compound at pH 7.2; format: physicochemical; conditions: not given

pKa | SMILES
6.8 | O=C(Nc1cccc2nccn12)N1CCN(Cc2cccc(Oc3ccc(Cl)cc3)c2)CC1
6.8 | O=C(Nc1cnc2ccccn12)N1CCN(Cc2cccc(Oc3ccc(Cl)cc3)c2)CC1

system: Rattus norvegicus; assay: Inhibition of FAAH in Sprague-Dawley rat brain homogenate assessed as increase in OEA levels at 20 mg/kg after 0.5 to 4 hrs by […]; format: functional, organism-based; conditions: not given

SMILES | OEA level increase (activity call)
O=C(Nc1cnccc1Cl)N1CCN(Cc2cccc(Oc3ccc(F)cc3)c2)CC1 | Active
O=C(Nc1cccc2nccn12)N1CCN(Cc2cccc(Oc3ccc(Cl)cc3)c2)CC1 | Active
O=C(Nc1cnc2ccccn12)N1CCN(Cc2cccc(Oc3ccc(Cl)cc3)c2)CC1 | Active
O=C(Nc1noc2ccccc12)N1CCN(Cc2cccc(Oc3ccc(Cl)cc3)c2)CC1 | Active
O=C(Nc1cccnc1)N1CCC(Cc2cccc(Oc3ccc(Cl)cc3)c2)CC1 | Active
O=C(Nc1cccnc1)N1CCN(Cc2cc(Cl)cc(Oc3ccc(Cl)cc3)c2)CC1 | Active
O=C(Nc1cnccc1Cl)N1CCN(Cc2cccc(Oc3ccc(Cl)cc3)c2)CC1 | Active

system: Plasma; assay: Drug uptake in Sprague-Dawley rat plasma at 20 mg/kg via oral gavage after 4 hrs by LC-MS/MS analysis; format: ADME, organism-based; conditions: in vivo

Drug uptake | SMILES
Dose-dependent effect | O=C(Nc1cccnc1)N1CCN(Cc2cc(Cl)cc(Oc3ccc(Cl)cc3)c2)CC1

system: not listed separately; assay: Ratio of drug level in brain to plasma in Sprague-Dawley rat at 20 mg/kg via oral gavage; format: ADME, organism-based; conditions: read-out: BPR

Kp | SMILES
1.99 | O=C(Nc1cccnc1)N1CCN(Cc2cccc(Oc3ccc(C(F)(F)F)cc3)c2)CC1
0.67 | O=C(Nc1cnccc1Cl)N1CCN(Cc2cccc(Oc3ccc(F)cc3)c2)CC1
2.26 | O=C(Nc1cccnc1)N1CCC(Cc2cccc(Oc3ccc(Cl)cc3)c2)CC1
1.26 | O=C(Nc1cccnc1)N1CCN(Cc2cc(Cl)cc(Oc3ccc(Cl)cc3)c2)CC1
1.18 | O=C(Nc1cnccc1Cl)N1CCN(Cc2cccc(Oc3ccc(Cl)cc3)c2)CC1

system: Rattus norvegicus; assay: Inhibition of FAAH in Sprague-Dawley rat brain homogenate assessed as increase in PEA levels at 20 mg/kg after 0.5 to 4 hrs by […]; format: functional, organism-based; conditions: not given

SMILES | FAAH inhibition (PEA level increase), active/inactive
O=C(Nc1cnccc1Cl)N1CCN(Cc2cccc(Oc3ccc(F)cc3)c2)CC1 | Active
O=C(Nc1cccc2nccn12)N1CCN(Cc2cccc(Oc3ccc(Cl)cc3)c2)CC1 | Active
O=C(Nc1cnc2ccccn12)N1CCN(Cc2cccc(Oc3ccc(Cl)cc3)c2)CC1 | Active
O=C(Nc1noc2ccccc12)N1CCN(Cc2cccc(Oc3ccc(Cl)cc3)c2)CC1 | Active
O=C(Nc1cccnc1)N1CCC(Cc2cccc(Oc3ccc(Cl)cc3)c2)CC1 | Active
O=C(Nc1cccnc1)N1CCN(Cc2cc(Cl)cc(Oc3ccc(Cl)cc3)c2)CC1 | Active
O=C(Nc1cnccc1Cl)N1CCN(Cc2cccc(Oc3ccc(Cl)cc3)c2)CC1 | Active

system: not listed separately; assay: Dissociation constant, pKa of the compound; format: physicochemical; conditions: not given

pKa | SMILES
3.85 | O=C(Nc1cnccc1Cl)N1CCN(Cc2cccc(Oc3ccc(Cl)cc3)c2)CC1

system: not listed separately; assay: Oral bioavailability in Sprague-Dawley rat; format: ADME, organism-based; conditions: in vivo

bioavailability | SMILES
60% | O=C(Nc1cnc2ccccn12)N1CCN(Cc2cccc(Oc3ccc(Cl)cc3)c2)CC1
44% | O=C(Nc1noc2ccccc12)N1CCN(Cc2cccc(Oc3ccc(Cl)cc3)c2)CC1
18% | O=C(Nc1cnccc1Cl)N1CCN(Cc2cccc(Oc3ccc(Cl)cc3)c2)CC1

system: Rattus norvegicus; assay: Inhibition of FAAH in Sprague-Dawley rat brain homogenate assessed as reduction in residual activity measured as [3H]-anandamide hydrolysis at 20 mg/kg after 30 mins by liquid scintillation analysis; conditions: read-out: INH

SMILES | inhibition in vivo at 20 mg/kg
O=C(Nc1cnc2ccccn12)N1CCN(Cc2cccc(Oc3ccc(Cl)cc3)c2)CC1 | 60%

system: Rattus norvegicus; assay: Inhibition of FAAH in Sprague-Dawley rat brain homogenate assessed as increase in OEA levels at 0.1 to 100 mg/kg measured 4 hrs post dosing by […]; format: functional, organism-based; conditions: not given

SMILES | inhibition
O=C(Nc1cccnc1)N1CCN(Cc2cccc(Oc3ccc(C(F)(F)F)cc3)c2)CC1 | Active

system: Rattus norvegicus; assay: Inhibition of FAAH in Sprague-Dawley rat brain homogenate assessed as residual activity measured as [3H]-anandamide hydrolysis at 6 mg/kg after 4 hrs by liquid scintillation analysis; format: functional; conditions: not given

SMILES | Activity
O=C(Nc1nn[nH]n1)N1CCN(Cc2cccc(Oc3ccc(Cl)cc3)c2)CC1 | <10%

system: Rattus norvegicus; assay: Inhibition of FAAH in Sprague-Dawley rat brain homogenate assessed as residual activity measured as [3H]-anandamide hydrolysis at 20 mg/kg after 4 hrs by liquid scintillation analysis; format: functional; conditions: not given

SMILES | Activity
O=C(Nc1cnc2ccccn12)N1CCN(Cc2cccc(Oc3ccc(Cl)cc3)c2)CC1 | <5%

biological target: T2, Fatty-acid amide hydrolase 1 (Homo sapiens, UniProt O00519); conditions: not given
T2 sequence (O00519 whole entry): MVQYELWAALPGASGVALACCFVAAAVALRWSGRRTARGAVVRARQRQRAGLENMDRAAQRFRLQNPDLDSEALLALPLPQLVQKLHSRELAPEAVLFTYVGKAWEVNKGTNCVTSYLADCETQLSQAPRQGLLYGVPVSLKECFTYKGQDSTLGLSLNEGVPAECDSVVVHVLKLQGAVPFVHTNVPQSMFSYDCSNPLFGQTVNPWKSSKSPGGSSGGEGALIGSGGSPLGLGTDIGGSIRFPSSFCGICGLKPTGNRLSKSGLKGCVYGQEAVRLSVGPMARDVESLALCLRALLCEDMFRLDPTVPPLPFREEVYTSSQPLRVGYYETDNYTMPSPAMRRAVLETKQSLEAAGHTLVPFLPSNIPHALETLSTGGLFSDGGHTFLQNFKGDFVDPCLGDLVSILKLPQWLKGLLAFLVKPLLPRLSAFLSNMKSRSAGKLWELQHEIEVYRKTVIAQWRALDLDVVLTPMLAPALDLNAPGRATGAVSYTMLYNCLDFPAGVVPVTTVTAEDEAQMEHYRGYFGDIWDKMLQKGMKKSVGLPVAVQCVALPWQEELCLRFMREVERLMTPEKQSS

IC50 | SMILES
3.3 nM | O=C(Nc1cnccc1Cl)N1CCN(Cc2cccc(Oc3ccc(F)cc3)c2)CC1
4.3 nM | O=C(Nc1cccnc1)N1CCC(Cc2cccc(Oc3ccc(Cl)cc3)c2)CC1
8 nM | O=C(Nc1cccnc1)N1CCN(Cc2cc(Cl)cc(Oc3ccc(Cl)cc3)c2)CC1
1.3 nM | O=C(Nc1cnccc1Cl)N1CCN(Cc2cccc(Oc3ccc(Cl)cc3)c2)CC1

system: not listed separately; assay: Volume of distribution at Steady state in Sprague-Dawley rat; format: ADME, organism-based; conditions: in vivo, read-out: Vdss

Vd | SMILES
10.7 L/kg | O=C(Nc1cnc2ccccn12)N1CCN(Cc2cccc(Oc3ccc(Cl)cc3)c2)CC1
2.48 L/kg | O=C(Nc1noc2ccccc12)N1CCN(Cc2cccc(Oc3ccc(Cl)cc3)c2)CC1
3.33 L/kg | O=C(Nc1cnccc1Cl)N1CCN(Cc2cccc(Oc3ccc(Cl)cc3)c2)CC1

Reference: ChEMBL document CHEMBL3808364, “The SAR of brain penetration for a series of heteroaryl urea FAAH inhibitors” (Bioorg Med Chem Lett, 2016)
